Experimental data from patent US10501801B2, “Identification of tumor-protective epitopes for the treatment of cancers” (THE UNIVERSITY OF CONNECTICUT, priority 2012, dated 2019).
pIC50: −log10 of the molar value. Ends that are not written are not given here.

Molecular target: H-2 K^d (Mus musculus, UniProt P01902)
Assay: Binding of peptides to purified H-2 K^d (inhibition of radiolabeled standard peptide)
Conditions: not given
Description: Binding assays. Binding of peptides to H-2 K^d was determined using quantitative assays based on the inhibition of binding of a radiolabeled standard peptide to purified MHC molecules, essentially as known in the art. […] Under the conditions utilized, where [label]<[MHC] and IC50≥[MHC], the measured IC50 values are reasonable approximations of the KD values.

Chain of H-2 K^d (P01902 22-368): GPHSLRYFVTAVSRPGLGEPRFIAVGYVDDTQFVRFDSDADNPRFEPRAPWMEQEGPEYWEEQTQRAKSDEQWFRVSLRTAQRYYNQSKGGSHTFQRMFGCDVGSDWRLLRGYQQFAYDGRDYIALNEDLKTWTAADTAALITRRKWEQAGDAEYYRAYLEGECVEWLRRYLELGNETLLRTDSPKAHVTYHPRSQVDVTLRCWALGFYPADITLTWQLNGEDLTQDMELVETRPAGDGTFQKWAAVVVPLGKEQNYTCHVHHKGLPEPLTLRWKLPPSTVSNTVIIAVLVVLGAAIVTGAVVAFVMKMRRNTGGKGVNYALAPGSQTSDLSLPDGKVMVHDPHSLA
Chain of H-2 K^d (P61769 21-119 partner): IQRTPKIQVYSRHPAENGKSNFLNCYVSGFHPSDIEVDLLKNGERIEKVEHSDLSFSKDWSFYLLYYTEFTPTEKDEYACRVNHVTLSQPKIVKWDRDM

| Compound | pIC50 |
| --- | --- |
| CC[C@H](C)[C@H](N)C(=O)N[C@@H](Cc1ccc(O)cc1)C(=O)NCC(=O)N[C@H](C(=O)N[C@H](C(=O)N[C@@H](C)C(=O)N[C@@H](CCCNC(=N)N)C(=O)N[C@@H](CC(N)=O)C(=O)N[C@@H](CCCNC(=N)N)C(=O)N[C@@H](C)C(=O)N[C@@H](CC(C)C)C(=O)O)C(C)C)C(C)C [Dis312.1, I(y/D)GVVARNRAL] | < 4.15 |
| AYAKQFAA [Ube4a.2, A(y/D)AKQFAA] | < 4.15 |
| AYILAALTKL [Trim26.1] | 8.96 |
| AYILAALTKLQ [Trim26.2] | < 4.15 |
| GFHGCIHEVL [Slit3] | < 4.15 |
| GYSVLHLAI [Nfkb1, G(y/D)SVLHLAI] | 5.79 |
| HYLQGSNA [Fiz1, H(y/D)LQGSNA] | < 4.15 |
| HYLSSILRL [Pacs2, HYLS(s/A)ILRL] | 5.90 |
| LYHTRPTAL [Kdm4b, L(y/D)HTRPTAL] | < 4.15 |
| LYVSKLNGP [Galnt1, L(y/D)VSKLNGP] | < 4.15 |
| NYLLSLVAVML [Serinc1] | 4.68 |
| PALKSEEKTL [Stau1.3] | < 4.15 |
| PYKRLKAEPA [Prrc2a] | 6.58 |
| SYCEPALNQA [Ncdn] | < 4.15 |
| SYMLQALCI [Tnpo3, (sy/LD)MLQALCI] | 6.84 |
| VYLTCRLEKPA [Gapdh] | < 4.15 |

Same assay, conditions: mutated peptide; Table 5; read-out: Measured IC50 for K^d Mut/WT: Mut

| Compound | pIC50 |
| --- | --- |
| AYILAALTKLQ [Zfp236.2, E(y/D)LDLQTQG] | 5.00 |
| AYRLEGDRS [Dcaf6, A(y/D)RLEGDRS] | < 4.15 |
| D(y/D)VPMEQPRP (DYVPMEQPRP; not fully specified; listed as Mus musculus) [Alkbh6.3] | < 4.15 |
| DYVPMEQPR [Alkbh6.2, D(y/D)VPMEQPR] | < 4.15 |
| ELQGLLEDE(l/R) (ELQGLLEDEL; not fully specified; printed as ELQGLLEDE(l/R); listed as Mus musculus) [Ccdc136] | < 4.15 |
| KLQRQYRSPRL [Mast2] | 5.00 |
| PYLTQYAI [Dhx8.2, P(y/D)LTQYAI] | < 4.15 |
| QVFPGLME(l/R) (QVFPGLMEL; not fully specified; printed as QVFPGLME(l/R); listed as Mus musculus) [Atxn10.1] | < 4.15 |
| SWSSRRSLLG(l/R) (SWSSRRSLLGL; not fully specified; listed as Mus musculus) [9430016H08Rik] | < 4.15 |
| VFPGLMEL [Atxn10.2, VFPGLME(l/R)] | < 4.15 |

Same assay, conditions: wild type counterpart peptide; Table 4; read-out: Measured IC50 for K^d Mut/WT: WT

| Compound | pIC50 |
| --- | --- |
| AYCETCWE(l/W) (AYCETCWEL; not fully specified; printed as AYCETCWE(l/W); cysteine pairing not given here; listed as Mus musculus) [Apc] | 7.22 |
| CYAKVKEQL [Ssx2ip, CYAK(v/L)KEQL] | 8.49 |
| HYINMILPI [Ufsp2, HYINM(i/S)LPI] | > 10.00 |
| YYVPLLKRVP(l/S) (YYVPLLKRVPL; not fully specified; printed as YYVPLLKRVP(l/S); listed as Mus musculus) [Alms1.2] | 5.83 |

Same assay, conditions: wild type counterpart peptide; Table 5; read-out: Measured IC50 for K^d Mut/WT: WT

| Compound | pIC50 |
| --- | --- |
| ALKSEEKTL [Stau1.4] | < 4.15 |
| AYAKQFAAI [Ube4a.1, A(y/D)AKQFAAI] | < 4.15 |
| AYILAALTKLQ [Zfp236.2, E(y/D)LDLQTQG] | < 4.15 |
| AYRLEGDRS [Dcaf6, A(y/D)RLEGDRS] | < 4.15 |
| D(y/D)VPMEQPRPP (DYVPMEQPRPP; not fully specified; listed as Mus musculus) [Alkbh6.4] | 5.53 |
| DYVPMEQP [Alkbh6.1, D(y/D)VPMEQP] | < 4.15 |
| DYVPMEQPR [Alkbh6.2, D(y/D)VPMEQPR] | 4.29 |
| ELQGLLEDE(l/R) (ELQGLLEDEL; not fully specified; printed as ELQGLLEDE(l/R); listed as Mus musculus) [Ccdc136] | 5.34 |
| EYLDLQTQ [Zfp236.1, E(y/D)LDLQTQ] | < 4.15 |
| KPALKSEEKTL [Stau1.2] | < 4.15 |
| LKSEEKTL [Stau1.1, LKSEEKT(l/P)] | < 4.15 |
| LYDVDAAF [Cpsf2, L(y/D)DVDAAF] | < 4.15 |
| LYEAGVTDE [Tpst2.2, L(y/D)EAGVTDE] | < 4.15 |
| LYYERIHKKML [Ugdh] | 7.92 |
| P(y/D)LTQYAIIM (PYLTQYAIIM; not fully specified; listed as Mus musculus) [Dhx8.4] | 5.20 |
| P(y/D)LTQYAIIML (PYLTQYAIIML; not fully specified; listed as Mus musculus) [Dhx8.1] | 5.78 |
| PYLTQYAI [Dhx8.2, P(y/D)LTQYAI] | < 4.15 |
| PYLTQYAII [Dhx8.3, P(y/D)LTQYAII] | 5.85 |
| QVFPGLME(l/R) (QVFPGLMEL; not fully specified; printed as QVFPGLME(l/R); listed as Mus musculus) [Atxn10.1] | 5.15 |
| SEDKIKAIL [Rangap1] | 5.29 |
| SWSSRRSLLG(l/R) (SWSSRRSLLGL; not fully specified; listed as Mus musculus) [9430016H08Rik] | < 4.15 |
| TTTPGGRPPYL [Sipa113] | < 4.15 |
